Measured values: paper PMC9954273, “Construction and Manipulation of Serial Gradient Dilution Array on a Microfluidic Slipchip for Screening and Characterizing Inhibitors against Human Pancreatic Lipase” (Biosensors, 2023)
Where two headings read alike, the source gives them in different places.

Assays:
[1] = biological target: T1, human pancreatic lipase (hPL) (Homo sapiens, UniProt P16233); assay: Fluorescence-based hPL inhibition assay on microfluidic SlipChip (DDAO-ol hydrolysis); type: biochemical; settings: for inhibition of hPL-catalyzed DDAO-ol hydrolysis (in words): dose-inhibition curves, Figure 5; for IC50: substrate DDAO-ol 20 μM, hPL 0.25 μg/mL, seven 1:1 gradient concentrations, triplicate, read-out: IC50 against hPL (SlipChip)
T1 sequence (P16233 17-465): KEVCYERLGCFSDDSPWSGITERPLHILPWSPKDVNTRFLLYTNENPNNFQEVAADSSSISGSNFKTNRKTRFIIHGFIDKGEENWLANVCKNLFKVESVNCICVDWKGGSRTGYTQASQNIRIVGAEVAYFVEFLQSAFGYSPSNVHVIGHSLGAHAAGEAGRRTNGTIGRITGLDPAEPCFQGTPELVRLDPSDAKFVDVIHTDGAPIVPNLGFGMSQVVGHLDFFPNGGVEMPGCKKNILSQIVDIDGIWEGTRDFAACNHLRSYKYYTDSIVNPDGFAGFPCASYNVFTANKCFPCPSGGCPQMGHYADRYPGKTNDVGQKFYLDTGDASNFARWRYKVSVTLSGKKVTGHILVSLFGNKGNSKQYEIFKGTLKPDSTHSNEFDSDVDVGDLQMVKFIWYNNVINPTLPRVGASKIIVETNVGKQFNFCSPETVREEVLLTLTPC
Method: Fluorescence-based assays were used to determine the residual activities of hPL in the presence of different concentrations of inhibitor, and to calculate the IC50 of the inhibitors. […] Then, the inhibitor at the initial concentration was injected into the P1 fluidic path, followed by injecting DMSO into the P2, P3 and P4 fluidic paths. After sliding the SlipChip as described in Section 2.3 with optimized conditions, seven microchambers containing inhibitors with gradient concentrations were formed. At the same time, the enzyme-substrate system was prepared by mixing 111 μL Tris-HCl (pH 7.4, 25 mM), 80 μL bile salts (0.1 mg/mL, final concentration), 1 μL hPL (dissolved in Tris-HCl buffer, 0.25 μg/mL, final concentration) and 8 μL substrate (DDAO-ol, dissolved in DMSO, 20 μM, final concentration). After pipetting out the residual DMSO in the new path (P5), the prepared enzyme-substrate mixture was immediately injected into the P5 fluidic path. Finally, the top layer was slipped down and to the right, transporting the serial gradient array of inhibitor to the solution of the enzyme-substrate system. […] After 3 min, […] The SlipChip device was then placed under the Olympus IX83 inverted microscope with the same fluorescent condition to obtain the photos of each microchamber. The gray value of the fluorescent photo was analyzed by ImageJ software. The residual activity of hPL was calculated using the following formula: the residual activity (%) = the fluorescence intensity of the test sample/the fluorescence intensity in negative control (DMSO only) × 100%.
All inhibition assays were performed in triplicate (three technical replicates) for each concentration of the inhibitors. IC50 and values were calculated using GraphPad Prism 7.0 (GraphPad Software, Inc., La Jolla, CA, USA).

[2] = biological target: T1, human pancreatic lipase (hPL); settings: past studies of the authors, cited from earlier work

Row | IC50 [1] [nM] | SMILES | inhibition of hPL-catalyzed DDAO-ol hydrolysis (in words) [1] | IC50 ([2]; read-out: IC50, anti-hPL activity) [nM] | IC50 ([2]; read-out: IC50, inhibitory effect on hPL) [nM]
1 | – | CCCCCCCCCCC[C@@H](C[C@@H]1OC(=O)[C@H]1CCCCCC)OC(=O)[C@H](CC(C)C)NC=O [Orlistat] | strongly inhibited hPL-catalyzed DDAO-ol hydrolysis in a dose-dependent manner | – | –
2 | 8.22 | O=C(OC[C@H]1O[C@@H](OC(=O)c2cc(O)c(O)c(O)c2)[C@H](OC(=O)c2cc(O)c(O)c(O)c2)[C@@H](OC(=O)c2cc(O)c(O)c(O)c2)[C@@H]1OC(=O)c1cc(O)c(O)c(O)c1)c1cc(O)c(O)c(O)c1 [PGG, 1,2,3,4,6-penta-O-galloyl-β-D-glucopyranose] | strongly inhibited hPL-catalyzed DDAO-ol hydrolysis in a dose-dependent manner | 7.59 | –
3 | 800 | COc1ccc(-c2cc(=O)c3c(O)cc(O)c(-c4cc(-c5cc(=O)c6c(O)cc(OC)cc6o5)ccc4OC)c3o2)cc1 [sciadopitysin] | strongly inhibited hPL-catalyzed DDAO-ol hydrolysis in a dose-dependent manner | – | 750
